Test results published in patent US4547354A (priority 1983, dated 1985).
Like-named read-outs stand apart in the source and are kept apart here.

Details: 95° C., 4 hours

## OO [H2 O2, hydrogen peroxide]
Example 1 of Table II: chlorobenzene 40.0 g, no acetone/methanol
  % Hydrogen Peroxide Recovery: 101%
Example 1 of Table II: chlorobenzene 40.0 g, no acetone/methanol, 93.6 mmoles in
  Hydrogen Peroxide (mmoles) Recovered: 94.1 mmol
Example 2 of Table II: chlorobenzene 40.0 g, with acetone and methanol
  % Hydrogen Peroxide Recovery: 67%
Example 2 of Table II: chlorobenzene 40.0 g, with acetone and methanol, 104.2 mmoles in
  Hydrogen Peroxide (mmoles) Recovered: 69.4 mmol
Example A: sulfuric acid, no chlorobenzene, no acetone/methanol
  % Hydrogen Peroxide Recovery: 107%
Example A: sulfuric acid, no chlorobenzene, no acetone/methanol, 104.0 mmoles in
  Hydrogen Peroxide (mmoles) Recovered: 111.7 mmol
Example B: no chlorobenzene, with acetone and methanol
  % Hydrogen Peroxide Recovery: 3%
Example B: no chlorobenzene, with acetone and methanol, 104.8 mmoles in
  Hydrogen Peroxide (mmoles) Recovered: 3.2 mmol
